In patent US4672059A, “N-[[5-(trifluoromethyl)-6-methoxy-1-naphthalenyl]-thioxomethyl and carbonyl]-N-methylglycinamides” (American Home Products Corporation, priority 1985, dated 1987):

Legend:
aldose reductase = settings: literature; cited from earlier work
[1] = system: dulcitol accumulation in tissues of galactose-fed rats (aldose reductase inhibiting property); test: dulcitol accumulation in lens, sciatic nerve and diaphragm of galactosemic rats; format: in vivo, male Sprague-Dawley rats
From the text: Such experiments are exemplified hereinbelow after the listing of the following general comments pertaining to these experiments:
(a) Four or more groups of six male rats, 50-70 g, Sprague-Dawley strain, were used. The first group, the control group, was fed a mixture of laboratory chow (roden Laboratory Chow, Purina) and glucose at 20% (w/w %) concentration. The untreated galactosemic group was fed a similar diet in which galactose is substituted for glucose. The third group was fed a diet prepared by mixing a given amount of the test compound with the galactose containing diet. The concentration of galactose in the diet of the treated groups was the same as that for the untreated galactosemic group.
(b) After four days, the animals were killed by decapitation. The eyeballs were removed and punctured with a razor blade; the freed lenses were rolled gently on filter paper and weighed. The sciatic nerves were dissected as completely as possible and weighed. Both tissues when frozen can be kept up to two weeks before being analyzed for dulcitol.
Only two minor reagent changes were made: (a) The rinsing mixture was an aqueous 5% (w/v) trichloroacetic acid solution and (b) the stock solution was prepared by dissolving 25 mg of dulcitol in 100 ml of an aqueous trichloroacetic acid solution. [N.B.: For each experiment the average value found in the tissue from rats fed the glucose diet was subtracted from the individual values found in the corresponding tissue in galactose-fed rats to obtain the amount of polyol accumulated.] […] In the present case the procedure of Hayman and Kinoshita was modified in that the final chromatography step was omitted in the preparation of the enzyme from bovine lens.
The figures under L, N and D represent the percentage decrease of dulcitol accumulation in the tissues of the lens, sciatic nerve and diaphragm, respectively, for treated rats as compared to untreated rats.

[2] = 26 mg/kg/day in diet, 4 days, vs untreated galactosemic rats

SMILES: O=C(O)CN1C(=O)c2cccc3cccc(c23)C1=O [1,3-Dioxo-1H-benz[de]isoquinoline-2(3H)-acetic acid]
- aldose reductase inhibition, in words (aldose reductase): effective inhibitor of aldose reductase

SMILES: COc1ccc2c(C(=S)N(C)CC(N)=O)cccc2c1C(F)(F)F [compound 1, N-[[5-(trifluoromethyl)-6-methoxy-1-naphthalenyl]-thioxomethyl]-N-methylglycinamide]
- in vivo results compared with compound No. 9 (tolrestat) ([1]; 5 mg/kg/day): comparable results
- % lowering dulcitol accumulation in vivo, N (sciatic nerve) ([1]; 5 mg/kg/day in diet, 4 days, vs untreated galactosemic rats): 54%

SMILES: COc1ccc2c(C(=S)N(C)CC(=O)N(C)C)cccc2c1C(F)(F)F [compound 3, 2-[[[6-Methoxy-5-(trifluoromethyl)-1-naphthalenyl]thioxomethyl]methylamino]-N,N-dimethylacetamide]
- % lowering dulcitol accumulation in vivo, N (sciatic nerve) ([1]; 55 mg/kg/day in diet, 4 days, vs untreated galactosemic rats): 48%

SMILES: COC(=N)NC(=O)CN(C)C(=S)c1cccc2c(C(F)(F)F)c(OC)ccc12 [compound 4, N--[[[[5-(trifluoromethyl)-6-methoxy-1-naphthalenyl]thioxomethyl]-N--methylamino]acetyl]carbamimidic acid, methyl ester]
- % lowering dulcitol accumulation in vivo, N (sciatic nerve) [1, 2]: 62%

SMILES: COC(=O)NC(=O)CN(C)C(=S)c1cccc2c(C(F)(F)F)c(OC)ccc12 [compound 6, [[[5-(Trifluoromethyl)-6-methoxy-1-naphthalenyl]thioxomethyl](methylamino)acetyl]carbamic acid, Methyl Ester]
- % lowering dulcitol accumulation in vivo, N (sciatic nerve) ([1]; 8.4 mg/kg/day in diet, 4 days, vs untreated galactosemic rats): 33%
- % lowering dulcitol accumulation in vivo, N (sciatic nerve) [1, 2]: 93%

SMILES: COc1ccc2c(C(=O)N(C)CC(N)=O)cccc2c1C(F)(F)F [compound 8, N-[[6-Methoxy-5-(trifluoromethyl)-1-naphthalenyl]carbonyl]-N-methylglycinamide]
- % lowering dulcitol accumulation in vivo, D (diaphragm) ([1]; diaphragm, 28 mg/kg/day in diet, 4 days, vs untreated galactosemic rats): 42%
- % lowering dulcitol accumulation in vivo, N (sciatic nerve) ([1]; 28 mg/kg/day in diet, 4 days, vs untreated galactosemic rats): 66%

SMILES: O=C1NC(=O)[C@@]2(CCOc3ccc(F)cc32)N1 [sorbinil, (S)-6-Fluoro-2,3-dihydrospiro(4H-1-benzopyran-4,4'-imidazolidine)-2',5'-dione]
- aldose reductase inhibition, in words (aldose reductase): aldose reductase inhibiting properties
